According to PMC7403315, “Cyclic peptide FXII inhibitor provides safe anticoagulation in a thrombosis model and in artificial lungs” (Nature Communications, 2020):
Where “and” joins values, the source holds several entries; their conditions need not be identical. Identical values can stand only once. Starred links: 1 amine or outer side, 2 acyl side, 3 side chain; linkers in the order of their positions; H or OH if unused. Positions of bridges follow the written chain, without caps; N, C: chain ends. Non-standard residues stand in square brackets, D forms with d. Residues, ends and D or L forms follow the SMILES beside them. TATA = O=C(CC[*:1])N1CN(C(=O)CC[*:2])CN(C(=O)CC[*:3])C1; Phe(4-F) = N[C@@H](Cc1ccc(F)cc1)C(=O)O; β3hR = N=C(N)NCCC[C@H](N)CC(=O)O

Key:
plasma kallikrein = molecular target: T1, plasma kallikrein (Homo sapiens, UniProt P03952); assay: Specificity profiling, residual protease activity; assay type: biochemical
T1 construct: 1.5 nM, factor XIa (Innovative Research) 6 nM, plasma kallikrein (Innovative Research) 0.25; purchased Innovative Research
T1 sequence (P03952 391-638 limits assumed): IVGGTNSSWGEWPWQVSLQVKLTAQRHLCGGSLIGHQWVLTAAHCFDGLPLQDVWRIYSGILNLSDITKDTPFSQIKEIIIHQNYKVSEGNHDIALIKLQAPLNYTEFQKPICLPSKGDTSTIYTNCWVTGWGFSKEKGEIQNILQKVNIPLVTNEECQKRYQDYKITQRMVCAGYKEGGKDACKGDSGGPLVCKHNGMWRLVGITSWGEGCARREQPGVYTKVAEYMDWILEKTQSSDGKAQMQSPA
T1 sequence (P03952 20-390 limits assumed): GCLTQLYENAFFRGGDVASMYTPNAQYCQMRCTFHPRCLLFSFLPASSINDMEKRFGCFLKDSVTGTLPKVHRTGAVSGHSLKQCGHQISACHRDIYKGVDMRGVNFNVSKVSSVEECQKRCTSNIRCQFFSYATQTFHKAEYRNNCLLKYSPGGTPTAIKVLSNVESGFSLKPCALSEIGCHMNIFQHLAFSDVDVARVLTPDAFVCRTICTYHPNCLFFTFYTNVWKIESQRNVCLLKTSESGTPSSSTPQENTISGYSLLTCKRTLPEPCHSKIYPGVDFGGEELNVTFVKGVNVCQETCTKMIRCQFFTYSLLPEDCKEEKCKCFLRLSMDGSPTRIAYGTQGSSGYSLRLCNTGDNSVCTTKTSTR
Method: (§1) Protease inhibition assays
(§2) The inhibitory activity of peptides was determined by measuring the residual protease activity with a fluorogenic substrate. The assay was performed in buffer containing 10 mM Tris-Cl, pH […]
(§3) 1% (v/v) DMSO in a volume of 150 µl. […]
(§4) HFXIIAB) were used at final concentrations of 0.4 nM. The reaction was pipetted as follows: 50 µl of bicyclic peptide in assay buffer were added to 50 µl of FXIIa in assay buffer and incubated for 10 minutes at 25°C before 50 µl of 150 µM fluorogenic substrate in assay buffer were added to measure the residual protease activity with an Infinite M200Pro fluorescence plate reader (excitation at 368 nm, emission at 467 nm; Tecan) for a period of 30 minutes with a read every minute at 25°C. The Tecan software i-control (version 1.1) was used for data analysis. Stock solutions of 1 mM bicyclic peptide were prepared by either dissolving the unpurified cyclization reaction with water or by dissolving purified and lyophilized peptide in water. The bicyclic peptides were serially diluted two-fold using assay buffer. Sigmoidal curves were fitted to the data using the following dose response equation (1), wherein x = peptide concentration, y = % protease activity, and p = Hill slope. IC50 values were derived from the fitted curve.
(§5) The inhibition constants (Ki) were calculated according to the equation of Cheng and Prusoff, Ki = IC50/(1+([S]0/Km), wherein IC50 is the functional strength of the inhibitor, [S]0 is the total substrate concentration, and Km is the Michaelis-Menten constant. […]
(§6) For testing the specificity of the bicyclic peptides, the following final concentrations of human serine proteases were used: tPA (Molecular Innovations) 7.5 nM, uPA (Molecular Innovations) 1.5 nM, factor XIa (Innovative Research) 6 nM, plasma kallikrein (Innovative Research) 0.25 nM, thrombin (Molecular Innovations) 1 nM, plasmin (Molecular Innovations) 2.5 nM, trypsin (Molecular Innovations) 0.05 nM, factor VIIa (Haematologic Technologies) 50 nM, factor Xa […]
(§7) (Haematologic Technologies) 6 nM, and activated protein C (APC) 5 nM. Two-fold dilutions of the peptide were prepared that ranged from 0.04 to 40 µM. The following fluorogenic substrates were used at a final concentration of 50 µM: Z-Phe-Arg-AMC (Bachem) for plasma kallikrein; Boc-Phe-Ser-Arg-AMC (Bachem) for factor XIa; Z-Gly-Gly-Arg-AMC (Bachem) for tPA, uPA, thrombin, and trypsin; H-D-Val-Leu-Lys-AMC (Bachem) for plasmin; and D-Phe-Pro-Arg-ANSNH-C4H9 (Haematologic Technologies) for FVIIa and FXa. For APC, the chromogenic substrate pyroGlu-Pro-Arg-pNA (S2366) was used at a concentration of 400 µM. […]

thrombin = molecular target: T2, thrombin (Homo sapiens, UniProt P00734); assay: Specificity profiling, residual protease activity; assay type: biochemical
T2 construct: nM, thrombin (Molecular Innovations) 1 nM, plasmin (Molecular Innovations) 2.5 nM, trypsin; purchased Molecular Innovations
Method: as §1, §2, §3, §4, §5, §6, §7

uPA = molecular target: T3, uPA (Homo sapiens, UniProt P00749); assay: Specificity profiling, residual protease activity; assay type: biochemical
T3 construct: purchased Molecular Innovations
Method: as §1, §2, §3, §4, §5, §6, §7

[1] = molecular target: activated protein C (APC) (Homo sapiens, UniProt P04070); assay: Specificity profiling, residual protease activity (chromogenic substrate); assay type: biochemical
Sequence of activated protein C (APC) (P04070 212-461 limits assumed): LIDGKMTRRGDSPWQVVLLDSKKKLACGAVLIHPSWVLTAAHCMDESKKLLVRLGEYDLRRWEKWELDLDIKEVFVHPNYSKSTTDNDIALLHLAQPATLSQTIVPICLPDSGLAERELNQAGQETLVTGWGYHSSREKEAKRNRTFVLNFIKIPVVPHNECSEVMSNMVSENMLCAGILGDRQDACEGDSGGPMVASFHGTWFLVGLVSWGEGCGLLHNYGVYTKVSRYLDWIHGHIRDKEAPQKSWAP
Sequence of activated protein C (APC) (P04070 43-197 limits assumed): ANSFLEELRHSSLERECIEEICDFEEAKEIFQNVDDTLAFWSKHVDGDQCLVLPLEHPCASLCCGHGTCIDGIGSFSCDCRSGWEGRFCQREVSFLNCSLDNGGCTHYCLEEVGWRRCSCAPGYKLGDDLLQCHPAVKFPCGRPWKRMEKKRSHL
Method: as §1, §2, §3, §4, §5, §6, §7

[2] = Observation of toxicity or adverse effects in the animal studies; assay type: in vivo, mice, rabbits, pigs; conditions: all studies with the three species
[3] = inhibitor 39.0625 nM, 0.0390625 µM
[4] = inhibitor 78.125 nM, 0.078125 µM
[5] = inhibitor 156.25 nM, 0.15625 µM
[6] = inhibitor 40000 nM (40 µM), 40 µM

CC(C)C[C@@H]1NC(=O)[C@H](CCC(N)=O)NC(=O)[C@H](Cc2c[nH]cn2)NC(=O)[C@@H]2CSCCC(=O)N3CN(CN(C3)C(=O)CCSC[C@H](NC(=O)[C@@H](CO)NC(=O)[C@H](N)CCCNC(=N)N)C(=O)N[C@@H](Cc3ccc(F)cc3)C(=O)N[C@@H](CCCNC(=N)N)C(=O)N[C@@H](CC(C)C)C(=O)N3CCC[C@H]3C(=O)N2)C(=O)CCSC[C@@H](C(N)=O)NC(=O)C[C@H](CCCNC(=N)N)NC1=O [FXII900] (H-[dR][dS]C[Phe(4-F)]RLPCHQL[β3hR]C-NH2; linker 3-8-13 via TATA)
Ki (plasma kallikrein): > 40 µM | remaining activity at 0.0390625 µM (plasma kallikrein; inhibitor 39.0625 nM): 98.1% | Residual activity of Plasma kallikrein (plasma kallikrein; [3]): 100.436% | remaining activity at 0.078125 µM (plasma kallikrein; inhibitor 78.125 nM): 98.4% | Residual activity of Plasma kallikrein (plasma kallikrein; [4]): 99.938% | remaining activity at 0.15625 µM (plasma kallikrein; inhibitor 156.25 nM): 98.9% | Residual activity of Plasma kallikrein (plasma kallikrein; [5]): 99.0018% | remaining activity at 0.3125 µM (plasma kallikrein; inhibitor 312.5 nM): 102% | Residual activity of Plasma kallikrein (plasma kallikrein; inhibitor 312.5 nM, 0.3125 µM): 98.8676% | remaining activity at 0.625 µM (plasma kallikrein; inhibitor 625 nM): 101% | Residual activity of Plasma kallikrein (plasma kallikrein; inhibitor 625 nM, 0.625 µM): 98.0454% | remaining activity at 1.25 µM (plasma kallikrein; inhibitor 1250 nM): 101% | Residual activity of Plasma kallikrein (plasma kallikrein; inhibitor 1250 nM, 1.25 µM): 97.0056% | remaining activity at […] (plasma kallikrein; inhibitor 2500 nM): 96% | Residual activity of Plasma kallikrein (plasma kallikrein; inhibitor 2500 nM, […]): 95.4747% | remaining activity at 5 µM (plasma kallikrein; inhibitor 5000 nM): 92.8% | Residual activity of Plasma kallikrein (plasma kallikrein; inhibitor 5000 nM, 5 µM): 93.0245% | remaining activity at 10 µM (plasma kallikrein; inhibitor 10000 nM): 91.9% | Residual activity of Plasma kallikrein (plasma kallikrein; inhibitor 10000 nM, 10 µM): 91.0418% | remaining activity at 20 µM (plasma kallikrein; inhibitor 20000 nM): 84.1% | Residual activity of Plasma kallikrein (plasma kallikrein; inhibitor 20000 nM, 20 µM): 81.6415% | remaining activity at 40 µM (plasma kallikrein; inhibitor 40000 nM (40 µM)): 72% | Residual activity of Plasma kallikrein (plasma kallikrein; [6]): 73.9098% and 69.1761% | Ki (thrombin): > 40 µM | remaining activity at 0.0390625 µM (thrombin; inhibitor 39.0625 nM): 101% | Residual activity of Thrombin (thrombin; [3]): 100% | remaining activity at 0.078125 µM (thrombin; inhibitor 78.125 nM): 103% | Residual activity of Thrombin (thrombin; [4]): 98.3135% | remaining activity at 0.15625 µM (thrombin; inhibitor 156.25 nM): 105% | Residual activity of Thrombin (thrombin; [5]): 102.594% | remaining activity at 0.3125 µM (thrombin; inhibitor 312.5 nM): 104% | Residual activity of Thrombin (thrombin; inhibitor 312.5 nM, 0.3125 µM): 101.218% | remaining activity at 0.625 µM (thrombin; inhibitor 625 nM): 102% | Residual activity of Thrombin (thrombin; inhibitor 625 nM, 0.625 µM): 96.4184% | remaining activity at 1.25 µM (thrombin; inhibitor 1250 nM): 105% | Residual activity of Thrombin (thrombin; inhibitor 1250 nM, 1.25 µM): 102.09% | remaining activity at […] (thrombin; inhibitor 2500 nM): 103% | Residual activity of Thrombin (thrombin; inhibitor 2500 nM, […]): 101.007% | remaining activity at 5 µM (thrombin; inhibitor 5000 nM): 105% | Residual activity of Thrombin (thrombin; inhibitor 5000 nM, 5 µM): 93.4869% | remaining activity at 10 µM (thrombin; inhibitor 10000 nM): 99% | Residual activity of Thrombin (thrombin; inhibitor 10000 nM, 10 µM): 98.045% | remaining activity at 20 µM (thrombin; inhibitor 20000 nM): 102% | Residual activity of Thrombin (thrombin; inhibitor 20000 nM, 20 µM): 95.8152% | remaining activity at 40 µM (thrombin; inhibitor 40000 nM (40 µM)): 95% | Residual activity of Thrombin (thrombin; [6]): 99.0803% and 90.0661% | Ki (uPA): > 40 µM | remaining activity at 0.0390625 µM (uPA; inhibitor 39.0625 nM): 96.1% | Residual activity of uPa (uPA; [3]): 99.3438% | remaining activity at 0.078125 µM (uPA; inhibitor 78.125 nM): 94.9% | Residual activity of uPa (uPA; [4]): 99.5842% | remaining activity at 0.15625 µM (uPA; inhibitor 156.25 nM): 99.6% | Residual activity of uPa (uPA; [5]): 106.929% | remaining activity at 0.3125 µM (uPA; inhibitor 312.5 nM): 98.2% | Residual activity of uPa (uPA; inhibitor 312.5 nM, 0.3125 µM): 103.987% | remaining activity at 0.625 µM (uPA; inhibitor 625 nM): 98.8% | Residual activity of uPa (uPA; inhibitor 625 nM, 0.625 µM): 103.035% | remaining activity at 1.25 µM (uPA; inhibitor 1250 nM): 100% | Residual activity of uPa (uPA; inhibitor 1250 nM, 1.25 µM): 106.211% | remaining activity at […] (uPA; inhibitor 2500 nM): 101% | Residual activity of uPa (uPA; inhibitor 2500 nM, […]): 90.2133% | remaining activity at 5 µM (uPA; inhibitor 5000 nM): 99.4% | Residual activity of uPa (uPA; inhibitor 5000 nM, 5 µM): 106.237% | remaining activity at 10 µM (uPA; inhibitor 10000 nM): 96.6% | Residual activity of uPa (uPA; inhibitor 10000 nM, 10 µM): 102.075% | remaining activity at 20 µM (uPA; inhibitor 20000 nM): 96.3% | Residual activity of uPa (uPA; inhibitor 20000 nM, 20 µM): 101.698% | remaining activity at 40 µM (uPA; inhibitor 40000 nM (40 µM)): 98.7% | Residual activity of uPa (uPA; [6]): 97.4594% and 105.626% | Ki [1]: > 40 µM | remaining activity at 0.0390625 µM ([1]; inhibitor 39.0625 nM): 98.1% | Residual activity of APC [1, 3]: 97.5009% and 97.9227% | remaining activity at 0.078125 µM ([1]; inhibitor 78.125 nM): 102% | Residual activity of APC [1, 4]: 96.3711% and 96.6396% | remaining activity at 0.15625 µM ([1]; inhibitor 156.25 nM): 102% | Residual activity of APC [1, 5]: 97.5779% and 99.0137% | remaining activity at 0.3125 µM ([1]; inhibitor 312.5 nM): 102% | Residual activity of APC ([1]; inhibitor 312.5 nM, 0.3125 µM): 99.2982% and 100.044% | remaining activity at 0.625 µM ([1]; inhibitor 625 nM): 103% | Residual activity of APC ([1]; inhibitor 625 nM, 0.625 µM): 98.4851% and 100.174% | remaining activity at 1.25 µM ([1]; inhibitor 1250 nM): 103% | Residual activity of APC ([1]; inhibitor 1250 nM, 1.25 µM): 97.7747% and 100.567% | remaining activity at […] ([1]; inhibitor 2500 nM): 102% | remaining activity at 5 µM ([1]; inhibitor 5000 nM): 101% | Residual activity of APC ([1]; inhibitor 5000 nM, 5 µM): 97.0131% and 99.7294% | remaining activity at 10 µM ([1]; inhibitor 10000 nM): 101% | Residual activity of APC ([1]; inhibitor 10000 nM, 10 µM): 97.8346% and 99.7294% | remaining activity at 20 µM ([1]; inhibitor 20000 nM): 101% | Residual activity of APC ([1]; inhibitor 20000 nM, 20 µM): 96.859% and 99.2406% | remaining activity at 40 µM ([1]; inhibitor 40000 nM (40 µM)): 98.3 ± 2.3% | Residual activity of APC [1, 6]: 100.29% and 95.7977% and 98.8915% | signs of toxicity or other adverse effects [2]: did not observe any signs of toxicity or other adverse effects
